Measured values published in paper PMC12655529, “Serendipitous Hinge Modulation Hypothetically Reprograms Caerin 1.1-LC Antibacterial Mechanism and Gram-Negative Selectivity” (Pharmaceutics, 2025).
Ends that are not written are not given here.

Key:
[1] = system: Escherichia coli ATCC 8739; type: cell-based; settings: ATCC 8739
Procedure: (§1) The antimicrobial activities of the peptides were evaluated by determining their minimal inhibitory concentration (MIC) and minimal bactericidal concentration (MBC) values following reported protocols [20]. The tested microorganisms included seven Gram-negative bacterial strains (Escherichia coli ATCC 8739, E. coli ATCC-BAA 2340, E. coli NCTC 13846, Klebsiella pneumoniae ATCC 43816, K. pneumoniae ATCC BAA-2342, Pseudomonas aeruginosa ATCC 9027, Acinetobacter baumannii ATCC BAA-747), three Gram-positive bacterial strains (Staphylococcus aureus ATCC 6538, Enterococcus faecalis NCTC 12697, MRSA NCTC 12493, and the fungal strain Candida albicans ATCC 10231. For the assay, each bacterial strain was cultured overnight at 37 °C in 100 mL of medium in a flask. The cultures were then subcultured to reach the logarithmic growth phase and diluted to 5 × 10^5 CFU/mL. Peptide samples were serially diluted two-fold in microplates, with concentrations ranging from 128 μM to 1 μM. The diluted bacterial suspensions were mixed with the peptide solutions and incubated overnight at 37 °C. The MIC values were determined by measuring the absorbance of each well using a Synergy HT plate reader (Agilent, Cheshire, UK). For MBC determination, aliquots from wells showing no visible growth were inoculated onto agar plates to assess bacterial viability. Each experiment was repeated independently three times and conducted in three independent replicates.

E. coli ATCC BAA-2340 = type: cell-based, Escherichia coli
Procedure: as §1

E. coli NCTC 13846 = type: cell-based, Escherichia coli
Procedure: as §1

[2] = system: Klebsiella pneumoniae ATCC 43816; type: cell-based; settings: ATCC 43816
Procedure: as §1

[3] = system: K. pneumoniae ATCC BAA-2342; type: cell-based, Klebsiella pneumoniae
Procedure: as §1

[4] = system: Pseudomonas aeruginosa ATCC 9027; type: cell-based
Procedure: as §1

[5] = system: Acinetobacter baumannii ATCC BAA-747; type: cell-based; settings: ATCC BAA-747
Procedure: as §1

[6] = system: Staphylococcus aureus ATCC 6538; type: cell-based; settings: ATCC 6538
Procedure: as §1

[7] = system: Enterococcus faecalis NCTC 12697; type: cell-based; settings: NCTC 12697
Procedure: as §1

MRSA NCTC 12493 = type: cell-based, Staphylococcus aureus
Procedure: as §1

horse red blood cells = assay: Haemolysis assay; type: cell-based; settings: concentration inducing 10% haemolysis of horse erythrocytes; 4% (v/v) in PBS, 2 h, 37 °C, absorbance 570 nm; no haemolysis at maximum testing concentration (128 μM) recorded as 256 μM
Procedure: The peptide cytotoxicity against mammalian erythrocytes was evaluated by haemolysis assay on horse red blood cells (E&O Laboratories Ltd., Falkirk, UK). Fresh horse blood was washed three times with PBS and resuspended to a final concentration of 4% (v/v) in PBS. The diluted blood suspension was then mixed with peptide solutions at varying concentrations and incubated for 2 h at 37 °C. Red blood cell suspensions treated with 0.1% Triton X-100 and PBS were used as controls. The Triton X-100-treated suspension was the positive control (for 100% haemolysis), while the PBS-treated suspension was the blank control. Following incubation, the mixtures were centrifuged at 1000× g for 10 min to separate erythrocytes from the supernatant. The absorbance of the supernatants was detected at 570 nm. The percentage haemolysis was calculated by following the equationPercentage Haemolysis = (AbsSample − AbsBlank)/(AbsPositive − AbsBlank) × 100%

Gram-positive bacteria = assay: Geometric mean MIC and therapeutic index, Gram-positive; type: cell-based; settings: geometric mean of MICs
E. coli (ATCC-BAA 2340) = type: cell-based, Escherichia coli; settings: ATCC-BAA 2340
Procedure: The peptide sensitivity was determined in different salt- and serum-containing environments. Bacterial strains were prepared following the MIC detection protocol described previously. To evaluate peptide sensitivity under physiological conditions, various concentrations of salt ions (150 mM NaCl, 4.5 mM KCl, 2 mM CaCl2, 1 mM MgCl2, 8 µM ZnCl2, 6 µM NH4Cl, or 4 µM FeCl3) and serum (10% FBS) were prepared in McCartney bottles prior to the addition of bacterial suspensions. The subcultured bacterial suspensions were then introduced to these modified media conditions. For MIC determination, the treated bacterial suspensions were diluted and dispensed into 96-well plates containing peptide solutions at graded concentrations. This assay allowed for the detection of potential alterations in MIC values, serving as an indicator of peptide sensitivity under different physiological conditions. All experiments were independently repeated three times, each with three replicates.

Gram-negative bacteria = assay: Geometric mean MIC and therapeutic index, Gram-negative; type: cell-based; settings: geometric mean of MICs

Substance	MBC, E. coli (ATCC 8739) [1]	MIC, E. coli (ATCC 8739) [1]	MBC, E. coli (ATCC BAA-2340) (E. coli ATCC BAA-2340)	MIC, E. coli (ATCC BAA-2340) (E. coli ATCC BAA-2340)	MBC, K. pneumoniae (ATCC 43816) [2]	MIC, K. pneumoniae (ATCC 43816) [2]	MBC, K. pneumoniae (ATCC BAA-2342) [3]	MIC, K. pneumoniae (ATCC BAA-2342) [3]	MBC, P. aeruginosa (ATCC 9027) [4]	MIC, P. aeruginosa (ATCC 9027) [4]	MBC, A. baumannii (ATCC BAA-747) [5]	MIC, A. baumannii (ATCC BAA-747) [5]	MBC, S. aureus (ATCC 6538) [6]	MIC, S. aureus (ATCC 6538) [6]	MBC, E. faecalis (NCTC 12697) [7]	MIC, E. faecalis (NCTC 12697) [7]	MBC, MRSA (NCTC 12493) (MRSA NCTC 12493)	MIC, MRSA (NCTC 12493) (MRSA NCTC 12493)	HC10 (horse red blood cells)	GM MIC Gram-Positive (Gram-positive bacteria)	further results
GLLSVLGSLKKIVPHVVPLIAKKL-NH2 [Caerin 1.1-LC 11K.22K]	2 µM	1 µM	2 µM	2 µM	16 µM	8 µM	4 µM	4 µM	8 µM	4 µM	16 µM	4 µM	16 µM	4 µM	64 µM	64 µM	8 µM	4 µM	10.3 µM	3.17 µM	MBC, E. coli (NCTC 13846) (E. coli NCTC 13846): 8 µM; MIC, E. coli (NCTC 13846) (E. coli NCTC 13846): 4 µM; MIC, Ca^2+ (E. coli (ATCC-BAA 2340)): 32 µM; MIC, Control (E. coli (ATCC-BAA 2340)): 4 µM; MIC, FBS (E. coli (ATCC-BAA 2340)): 16 µM; MIC, Fe^3+ (E. coli (ATCC-BAA 2340)): 8 µM; MIC, K^+ (E. coli (ATCC-BAA 2340)): 8 µM; MIC, Mg^2+ (E. coli (ATCC-BAA 2340)): 16 µM; MIC, NH4^+ (E. coli (ATCC-BAA 2340)): 8 µM; MIC, Na^+ (E. coli (ATCC-BAA 2340)): 8 µM
GLLSVLGSLKLIVPRVVPLIAEKL-NH2 [Caerin 1.1-LC PRVVP]	8 µM	2 µM	4 µM	2 µM	16 µM	8 µM	32 µM	8 µM	8/8 µM	8/8 µM	32 µM	32 µM	16 µM	8 µM	>128 µM	>128 µM	8 µM	4 µM	25.8 µM	5.94 µM	MBC, E. coli (NCTC 13846) (E. coli NCTC 13846): 16 µM; MIC, E. coli (NCTC 13846) (E. coli NCTC 13846): 4 µM
GLLSVLKSLKKIVPHVVPKIAEKL-NH2 [Caerin 1.1-LC 7.11.19K]	2 µM	2 µM	2 µM	2 µM	4 µM	4 µM	4 µM	4 µM	4/4 µM	4/4 µM	8 µM	4 µM	4 µM	4 µM	128 µM	128 µM	8 µM	8 µM	46.5 µM	3.28 µM	MBC, E. coli (NCTC 13846) (E. coli NCTC 13846): 4 µM; MIC, E. coli (NCTC 13846) (E. coli NCTC 13846): 4 µM; MIC, Ca^2+ (E. coli (ATCC-BAA 2340)): 64 µM; MIC, Control (E. coli (ATCC-BAA 2340)): 2 µM; MIC, FBS (E. coli (ATCC-BAA 2340)): 16 µM; MIC, Fe^3+ (E. coli (ATCC-BAA 2340)): 2 µM; MIC, K^+ (E. coli (ATCC-BAA 2340)): 2 µM; MIC, Mg^2+ (E. coli (ATCC-BAA 2340)): 4 µM; MIC, NH4^+ (E. coli (ATCC-BAA 2340)): 2 µM; MIC, Na^+ (E. coli (ATCC-BAA 2340)): 2 µM
GLLSVLGSLKLIVPHIIPLIAEKL-NH2 [Caerin 1.1-LC PHIIP]	8 µM	4 µM	8 µM	4 µM	16 µM	16 µM	16 µM	8 µM	64 µM	32 µM	8 µM	8 µM	8 µM	4 µM	>128 µM	>128 µM	4 µM	4 µM	2.4 µM	8 µM	MBC, E. coli (NCTC 13846) (E. coli NCTC 13846): 8 µM; MIC, E. coli (NCTC 13846) (E. coli NCTC 13846): 4 µM
GLLSVLGSLKKWVPHVVPLIAKKL-NH2 [Caerin 1.1-LC 11K.12K.12W]	2 µM	2 µM	4 µM	2 µM	4 µM	2 µM	8 µM	8 µM	4 µM	2 µM	4 µM	4 µM	2 µM	1 µM	32 µM	32 µM	16 µM	1 µM	8.5 µM	2 µM	MBC, E. coli (NCTC 13846) (E. coli NCTC 13846): 4 µM; MIC, E. coli (NCTC 13846) (E. coli NCTC 13846): 2 µM; MIC, Ca^2+ (E. coli (ATCC-BAA 2340)): 32 µM; MIC, Control (E. coli (ATCC-BAA 2340)): 4 µM; MIC, FBS (E. coli (ATCC-BAA 2340)): 8 µM; MIC, Fe^3+ (E. coli (ATCC-BAA 2340)): 4 µM; MIC, K^+ (E. coli (ATCC-BAA 2340)): 4 µM; MIC, Mg^2+ (E. coli (ATCC-BAA 2340)): 8 µM; MIC, NH4^+ (E. coli (ATCC-BAA 2340)): 4 µM; MIC, Na^+ (E. coli (ATCC-BAA 2340)): 4 µM
GLLSVLGSLKLIVPGGGPLIAEKL-NH2 [Caerin 1.1-LC PGGGP]	128 µM	128 µM	> 128 µM	128 µM	>128 µM	>128 µM	>128 µM	>128 µM	>128 µM	>128 µM	>128 µM	>128 µM	>128 µM	>128 µM	>128 µM	>128 µM	>128 µM	>128 µM	256 µM	256 µM	GM MIC Gram-Negative (Gram-negative bacteria): 190.21 µM
GLLSVLGSLKLIVPKVVPLIAEKL-NH2 [Caerin 1.1-LC PKVVP]	8 µM	4 µM	4 µM	2 µM	32 µM	16 µM	32 µM	8 µM	32 µM	8 µM	32 µM	32 µM	32 µM	16 µM	>128 µM	>128 µM	8 µM	8 µM	25.8 µM	12.14 µM	MBC, E. coli (NCTC 13846) (E. coli NCTC 13846): 4 µM; MIC, E. coli (NCTC 13846) (E. coli NCTC 13846): 2 µM
